Source: patent USRE48599E1, “Compositions comprising TLIA-Ig fusion protein for the regulation of T regulatory cells, and methods for their use” (University of Miami, priority 2013, dated 2021)

B1: rmTL1A-Ig: extracellular domain of rhesus macaque TL1A fused to hinge-CH2-CH3 domain of rhesus macaque IgG1, SEQ ID NO: 10 (protein)
chain: METDTLLLWVLLLWVPGSTGDLEIKTCGGGSKPPTCPPCPAPELLGGPSVFLFPPKPKDTLMISRTPEVTCVVVDVSQEDPDVKFNWYVNGAEVHHAQTKPRETQYNSTYRVVSVLTVTHQDWLNGKEYTCKVSNKALPVPIQKTISKDKGQPREPQVYTLPPSREELTKNQVSLTCLVKGFYPSDIVVEWENSGQPENTYKTTPPVLDSDGSYFLYSKLTVDKSRWQQGNVFSCSVMHEALHNHYTQEFKGQEFAPSHQQVYAPLRADGDKPRAHLTVVTQTPTQHFKNQFPALHWEHELGLAFTKNRMNYTNKFLLIPESGDYFIYSQVTFRGMTSECSEIRQAGRPNKPDSITVVITKVTDSYPEPTQLLMGTKSVCEVGSNWFQPIYLGPMFSLQEGDKLMVNVSDISLVDYTKEDKTFFGAFLL

Key:
human Tregs = assay: Human Treg proliferation in humanized mice (NSG-hu); format: in vivo
Description: Commercial antibodies for use in flow cytometry, ELISA and in vivo studies were purchased from BD Pharmingen, eBioscience or BioLegend. The Armenian Hamster IgG Isotype control was bought from eBioscience. Armenian hamster hybridomas producing antibodies to mouse TNFRSF25 (4C12, agonistic) were generated as described in Fang, et al. 2008. Essential role of TNF receptor superfamily 25 (TNFRSF25) in the development of allergic lung inflammation. J Exp Med 205:1037-1048. Briefly, 4C12, hTL1A-Ig and rmTL1A-Ig were produced in hollow fiber bioreactors (Fibercell Systems, Frederick, Md.) and purified from serum-free supernatants on a protein G (4C12) or protein A (TL1A-Ig) column (GE Healthcare, UK). For flow cytometry analysis, single cell suspensions were prepared from spleen and lymph nodes. 10^6 cells were pre-blocked with anti-mouse CD16/CD32 and stained with different antibody combinations. Intracellular staining was performed according to standard procedures. Flow cytometric acquisition was performed on a Becton Dickinson Fortessa instrument and […] or FlowJo software was used for analysis.
Human fetal livers from elective terminations (12-20 weeks of gestational age, Advanced Bioscience Resources) were acquired on a fee for service basis. CD34+ cells were enriched using immunomagnetic beads according to the manufacturer's instructions following density gradient centrifugation of single cell suspensions (CD34+ selection kit; Miltenyi Biotec, Auburn, Calif.). Purity of CD34+ cells isolated was evaluated by flow cytometry and was >85%. Cells were aliquotted and frozen for later HLA typing and transplanted into sub-lethally irradiated neonatal NSG mice. HLA typed CD34+ cells hematopoietic stem cells (HSC) were placed into culture containing 10% human serum, 10 ng/ml each of interleukin (IL)-3, IL-6 and stem cell factor (SCF) in IMDM for 3-5 days. On the day of transplant, cells were harvested from culture dishes and washed in HBSS and CFU and LTC-IC assays were performed to evaluate proliferation and differentiation potential. These assays were performed using standard reagents (StemCell Inc.) and methods as published by the manufacturer. CFU potential was identical to bone marrow progenitor cells following 14 day culture in methylcellulose media supplemented with SCF, GM-CSF, IL-3 and EPO. These assays readily reveal whether gross morphological characteristics and colony numbers of isolated HSC are within expected limits. One-day old NSG mice generated from timed matings were housed with foster-dams for 24 hours post-irradiation (sub-lethal, 1 Gy, whole body irradiation) at which time they are transplanted with 1×10^6−2×10^6 pre-cultured HSC intra-hepatically (i.h.) in a volume of 20 μl using a Hamilton syringe and a 30 gauge ½ inch needle. The pups were immediately returned to their foster-dams and allowed to nurse until weaning at 28 days. Human/mouse chimerism was evaluated in peripheral blood at 15 weeks of age by determining the relative percentages of murine and human CD45+ cells by flow cytometry. Once human CD45+ cells were detected, analysis was extended to include human CD3, CD4, CD8, CD11c and CD19 on all blood collections. Successfully engrafted mice were selected when the fraction of human CD45+ cells in peripheral blood exceeded 60% (NSG-hu).
To determine the in vivo activity of hTL1A-Ig on human Tregs, humanized mice were generated using human fetal liver CD34^+ cells transferred into NOD, SCID, common γ-chain deficient (NSG) recipient mice, as described above. […] The majority of human CD45+ lymphocytes in the spleen were T cells (˜50%) followed by B cells (˜35%), NK cells (˜2-3%) and dendritic cells (˜1%).

[1] = Safety of TL1A-Ig in rhesus macaques (observations, chemistries, CBC, histopathology); format: in vivo; conditions: necropsy day 21, 1.5 mg/kg; for histopathology of midbrain, brainstem, liver and pancreas: H&E sections; for histopathology of sigmoid colon / histopathology of terminal ileum: four out of four animals
Experimental: (§1) Safety and Activity of TL1A-Ig in Rhesus Macaque The safety and efficacy of TL1A-Ig in non-human primates (NHP) (Indian-origin macaca mulatta) were determined. Following routine screening and 60-day quarantine, rhesus macaque (rm) TL1A-Ig or human (h) TL1A-Ig were administered to the NHP on Day 0 by intravenous (IV) bolus infusion (15 minutes) Animal weights and cage-side observations were performed daily and peripheral blood was collected for analysis of complete blood counts, routine chemistries, CD4 TruCounts, serum isolation and flow cytometry analysis. For flow cytometry analysis, peripheral blood cells were counted on a Countess automated cell counter and aliquots of 1.5×10^6 cells were distributed per sample tube, FMO (Fluorescent Minus One), controls, and compensation tubes. Test samples were stained in D-PBS and 0.5% FBS with 1 μL/mL live dead aqua blue discriminator (Life Technologies). Test samples and appropriate controls were surface stained for 30 minutes with the indicated cocktails of antibodies (purchased from BD, Becton Dickinson, eBioscience or Life Technologies). For intracellular staining, cells were permeabilized with Fix/perm solution (eBioscience) for 30 minutes at 4° C. Cells were washed and stained intracellularly with anti-FoxP3 antibody for 30 minutes. Following staining, cells were washed and resuspended in 300 μL, FACs wash buffer for acquisition on a BD™ LSR11 flow cytometer (Beckton Dickinson (BD)). Cells were acquired and analysis was done of FlowJo software (Tree Star, Inc., Ashland, Oreg.). For CD4/CD8 Trucounts, CD45, CD3, CD4 and CD8 antibodies were dispensed in TruCount tubes (BD, Cat.No. 340334); 50 uL samples were added and allowed to stain for 15 minutes at room temperature in the dark. Subsequently, samples are lysed with 450 μL FACS lysing solution, and incubated for 15 minutes. Sample tubes were analyzed in the cytometer (Calibur, BD). The events were gated on lymphocytes in side scatter (SSC) dot plot and the CD45-positive population was selected, and then reported: CD3+CD4+ T cells, and CD3+CD8+ T cells. For multiplex analysis of serum cytokines, serum from the indicated days was collected and samples and controls for standard curves were placed in filter plates, and then diluted ¼, and incubated for 2 hour at room temperature with anti-cytokine beads. The content was removed and washed 2 times with the buffer before adding a mixture of biotinylated detection antibodies to each well. After incubating with detection antibody for 1 hour, plates were washed 2 times and incubated for 30 minutes with streptavidin-PE. Plates were again washed and wells were resuspended with 150 μL sheath fluid; plates were then read and analyzed on the Luminex® SD Analyzer (Life Technologies, Inc.). The PE signal (Median Fluorescent Intensity, MFI) is proportional to the amount of each cytokine present in the sample; concentrations were calculated from the standard curve.
(§2) An inherent limitation of rodent animal models is related to the highly controlled and restricted history of foreign antigen challenge of laboratory animals bred and housed under pathogen-free conditions. Given the antigen-dependent activity of TNFRSF25 agonists, this limitation has important consequences for translational studies of these agents into NHP, wherein the history of foreign antigen exposure is dramatically more diverse. To address this question, rhesus macaque TL1A-Ig (rmTL1A-Ig) was produced and tested in NHP. Treatment-naïve Indian-origin rhesus macaques (nonhuman primates (NHP)) were procured, housed and treated by expert personnel at Advanced Bioscience Laboratories (ABL, Rockville, Md.). Rhesus macaque TL1A-Ig (rmTL1A-Ig) and human (h) TL1A-Ig were manufactured and purified as described above and shipped to ABL personnel at the indicated concentration in blinded tubes diluted in a total volume of 10 ml PBS. […]

[2] = Serum half-life of TL1A-Ig in rhesus macaques; format: in vivo, rhesus macaque; conditions: NHP serum, IV, one-phase exponential decay model
Experimental: Safety and Activity of TL1A-Ig in Rhesus Macaque The safety and efficacy of TL1A-Ig in non-human primates (NHP) (Indian-origin macaca mulatta) were determined. Following routine screening and 60-day quarantine, rhesus macaque (rm) TL1A-Ig or human (h) TL1A-Ig were administered to the NHP on Day 0 by intravenous (IV) bolus infusion (15 minutes) Animal weights and cage-side observations were performed daily and peripheral blood was collected for analysis of complete blood counts, routine chemistries, CD4 TruCounts, serum isolation and flow cytometry analysis. For flow cytometry analysis, peripheral blood cells were counted on a Countess automated cell counter and aliquots of 1.5×10^6 cells were distributed per sample tube, FMO (Fluorescent Minus One), controls, and compensation tubes. Test samples were stained in D-PBS and 0.5% FBS with 1 μL/mL live dead aqua blue discriminator (Life Technologies). […] Sample tubes were analyzed in the cytometer (Calibur, BD). […] Plates were again washed and wells were resuspended with 150 μL sheath fluid; plates were then read and analyzed on the Luminex® SD Analyzer (Life Technologies, Inc.). The PE signal (Median Fluorescent Intensity, MFI) is proportional to the amount of each cytokine present in the sample; concentrations were calculated from the standard curve. […]

[3] = tested on: peripheral blood Treg cells; assay: Peripheral blood Treg expansion, T cell subsets and serum cytokines in rhesus macaques; format: in vivo, rhesus macaque; conditions: for expansion of the Treg compartment at peak: 1.5 mg/kg, single IV; for expansion of the Treg compartment at peak / time of peak relative fold-expansion of Treg: peripheral blood; for serum levels of IFN-γ and TGF-β: by day 4 after treatment; for serum levels of IL-2, IL-4, IL-5, IL-10 or TNF-α: day 0, day 2, day 4, Luminex
Experimental: as §1, §2

Molecule | total frequency of Treg and proportion of Treg in active proliferation (Ki67+) (human Tregs; day 5, spleen, lymph node and small intestine) | expression of CD69 in CD4+ and CD8+ conventional cells (human Tregs; lymph nodes) | mean Treg value (human Tregs; lymph nodes, day 5, 100 μg i.p.) | mean Treg value (±SEM) (human Tregs; small intestine, day 5, 100 μg i.p.) | mean Treg value (±SEM), FoxP3+ out of total CD4+CD25hiCD127- cells (human Tregs; spleen, day 5, 100 μg i.p.) | overall balance of hCD45+, hCD4+ or hCD8+ cells (human Tregs; spleen, lymph nodes, small intestine, day 5 after injection) | expression of CD69 in CD8+ conventional cells (human Tregs; spleen, p=0.0064) | expression of CD69 in CD4+ conventional cells (human Tregs; spleen, p=0.0363) | histopathology of midbrain, brainstem, liver and pancreas [1] | histopathology of sigmoid colon [1] | histopathology of terminal ileum [1] | half-life [2] | expansion of the Treg compartment at peak [3] | serum levels of IFN-γ and TGF-β [3] | serum levels of IL-2, IL-4, IL-5, IL-10 or TNF-α [3] | time of peak relative fold-expansion of Treg [3] | Treg expansion ([3]; 0.5 mg/kg dose versus 1.5 mg/kg)
hTL1A-Ig: extracellular domain of human TL1A fused to hinge-CH2-CH3 domain of human IgG1, SEQ ID NO: 16 | significant increase | not in lymph nodes | 1.94±0.21 | 4.54±0.69% | 1.71±0.24% | did not significantly alter | increased expression of CD69 | increased expression of CD69 | no evidence of inflammation or pathology | mild, multifocal, lymphoplasmacytic infiltrates | mild, diffuse mucosal and submucosal edema | 12.5 h | approximately 3 fold | trend toward decreased levels | no detectable changes | 4 days post-treatment | 
B1 |  |  |  |  |  |  |  |  | no evidence of inflammation or pathology | mild, multifocal, lymphoplasmacytic infiltrates | mild, diffuse mucosal and submucosal edema |  | approximately 3 fold | trend toward decreased levels | no detectable changes | 4 days post-treatment | non-significantly reduced trend
